*1 amine or outer side, *2 acyl side, *3 side chain or, on linkers, in order; H or OH if unused. Where a SMILES comes first, the peptide text is derived from it. Side-chain parts run from the residue outwards. [ ]: non-standard residue; d: D form. The star is where a group is joined. C18 diacid = O=C(O)CCCCCCCCCCCCCCCCC(=O)*; C16 diacid = O=C(O)CCCCCCCCCCCCCCC(=O)*; γGlu = O=C(O)[C@H](CCC(=O)[*:2])N[*:1]; NMeI = CC[C@H](C)[C@H](NC)C(=O)O; αMeL = CC(C)C[C@](C)(N)C(=O)O; Pentanoyl = CCCCC(=O)*; Aib = CC(C)(N)C(=O)O
Assays:
human CRF2a receptor = target: T1, human CRF2a receptor (Homo sapiens, UniProt Q13324); assay: Activity at human CRF2a receptor, cAMP functional assay in TeloHEAC cells; format: cell-based; details: TeloHEAC cells stably expressing human CRF2a receptor, relative to urocortin 2 (100 nM = 100%)
T1 construct: expressed in transfected cells; host or cells: TeloHEAC cells
T1 sequence (Q13324 1-411): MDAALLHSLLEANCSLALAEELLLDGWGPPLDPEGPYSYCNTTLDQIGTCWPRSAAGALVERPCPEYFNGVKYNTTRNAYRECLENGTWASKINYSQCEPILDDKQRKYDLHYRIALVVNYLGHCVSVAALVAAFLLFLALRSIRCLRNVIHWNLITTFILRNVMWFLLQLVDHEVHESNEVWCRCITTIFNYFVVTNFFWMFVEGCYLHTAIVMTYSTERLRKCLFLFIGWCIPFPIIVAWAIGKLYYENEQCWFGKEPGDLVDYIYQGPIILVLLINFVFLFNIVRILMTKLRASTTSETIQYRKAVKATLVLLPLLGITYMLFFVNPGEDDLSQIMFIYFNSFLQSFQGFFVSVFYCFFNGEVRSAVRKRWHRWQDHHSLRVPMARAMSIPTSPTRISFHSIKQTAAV
Protocol: Agonism of compounds for human corticotropin-releasing factor 2a (CRF2a receptor) was determined by a functional assay measuring cAMP modulation upon treatment of TeloHEAC cells stably expressing human CRF2a receptor. Compounds were dissolved at 0.5 mM in 100% DMSO and serially diluted (1:2) in 100% DMSO for 16 dilutions. 20 nL of each dilution was then transferred to 384-well assay plate using an acoustic droplet ejection instrument. 5 μL of compound buffer (1×HBSS; 20 mM HEPES,) were then added to each well. Prior to use, frozen cells were thawed quickly at 37° C. and washed (5 min at 900 rpm) with 20 mL cell buffer (1×HBSS; 20 mM HEPES). Cells were resuspended in cell buffer added with 2 mM IBMX and adjusted to a cell density of […]. 5 μL cells (final dell density: 10000 cells/well) were dispensed in the compound-containing 384-well assay plate and incubated for 30 minutes 37° C. The cAMP level in treated cells was determined using the Cisbio 62AM4PEC kit according to manufacturer's instruction. Finally, plates were incubated for 1 h at room temperature before measuring the fluorescence ratio between 665/620 nm. The percent activity value (E %) was calculated by setting 100 nM of urocortin 2 (UCN2) as 100%. The in vitro potency of the compounds was quantified by determining the concentrations that caused 50% activation of maximal response (EC50) relative to urocortin 2.

CFR1R receptor = target: T2, CFR1R receptor (Homo sapiens, UniProt P34998); assay: Activity at anti-target CFR1R receptor, cAMP assay in CRF1R-overexpression CHO-K1 cells; format: cell-based; details: 100% = Sauvagine at 100 nM; for EC50: cAMP
T2 construct: host or cells: CHO-K1 (clone 2)
T2 sequence (P34998 24-415): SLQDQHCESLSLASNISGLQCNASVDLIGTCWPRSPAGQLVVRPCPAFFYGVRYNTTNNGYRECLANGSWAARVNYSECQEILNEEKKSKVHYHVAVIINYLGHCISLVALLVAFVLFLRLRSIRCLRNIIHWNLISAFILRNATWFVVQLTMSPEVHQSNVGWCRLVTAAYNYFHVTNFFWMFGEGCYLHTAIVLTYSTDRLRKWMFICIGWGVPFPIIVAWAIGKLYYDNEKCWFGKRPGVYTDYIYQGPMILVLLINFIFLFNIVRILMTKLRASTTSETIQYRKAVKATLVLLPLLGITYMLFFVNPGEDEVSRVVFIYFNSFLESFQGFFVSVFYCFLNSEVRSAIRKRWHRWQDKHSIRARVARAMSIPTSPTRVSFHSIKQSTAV
In short: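 Run as for the TeloHAEC line, except the full-activation control well received Sauvagine (100 nM) and final density was 4000 cells/well. Cells from clone 2 came from frozen aliquots of near-confluent cultures.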

EC50 (human CRF2a receptor)	Emax (% I) (CFR1R receptor)	EC50 (CFR1R receptor)	Compound
3.55 nM	10 % I	> 250 nM	CC[C@H](C)[C@H](NC(C)=O)C(=O)N[C@H](C(=O)N[C@@H](CC(C)C)C(=O)N[C@@H](CO)C(=O)N[C@@H](CC(C)C)C(=O)N[C@@H](CC(=O)O)C(=O)N[C@@H](C(=O)N1CCC[C@H]1C(=O)N[C@H](C(=O)N[C@@H](CCCCN)C(=O)N[C@@H](CC(C)C)C(=O)N[C@@H](CCCCNC(=O)CC[C@H](NC(=O)CCCCCCCCCCCCCCC(=O)O)C(=O)O)C(=O)N[C@@H](CCC(N)=O)C(=O)NC(C)(C)C(=O)N[C@@H](CC(C)C)C(=O)N[C@@H](CC(C)C)C(=O)N[C@@H](CCCCN)C(=O)N[C@@H](CCC(N)=O)C(=O)N[C@@H](CCC(=O)O)C(=O)N[C@@H](CCCNC(=N)N)C(=O)N[C@@H](CCC(N)=O)C(=O)N[C@@H](CCCCN)C(=O)N[C@@H](CCCCN)C(=O)N[C@@H](CCC(N)=O)C(=O)N[C@@H](CCCNC(=N)N)C(=O)N[C@@H](CCC(=O)O)C(=O)N[C@@H](CCC(N)=O)C(=O)N[C@@H](C)C(=O)N[C@@H](CCC(=O)O)C(=O)N[C@@H](CCCCN)C(=O)N[C@@H](CC(N)=O)C(=O)N[C@H](C(=O)N[C@@H](CCC(N)=O)C(=O)N[C@H](C(=O)N[C@@H](CC(C)C)C(=O)N[C@@H](CCC(=O)O)C(=O)N[C@@H](CCC(N)=O)C(=O)N[C@H](C(N)=O)C(C)C)[C@@H](C)CC)C(C)C)[C@@H](C)CC)C(C)C)C(C)C [compound 18] (Ac-IVLSLD[dV]PIKLK([γGlu-C16 diacid])Q[Aib]LLKQERQKKQREQAEKNVQILEQV-NH2)
1.09 nM	3 % I	> 250 nM	CC[C@H](C)[C@H](NC(C)=O)C(=O)N[C@H](C(=O)N[C@@H](CC(C)C)C(=O)N[C@@H](CO)C(=O)N[C@@H](CC(C)C)C(=O)N[C@@H](CC(=O)O)C(=O)N[C@H](C(=O)N1CCC[C@H]1C(=O)N[C@H](C(=O)N[C@@H](CCCCN)C(=O)N[C@@](C)(CC(C)C)C(=O)N[C@@H](CCCCNC(=O)CC[C@H](NC(=O)CCCCCCCCCCCCCCC(=O)O)C(=O)O)C(=O)N[C@@H](CCC(N)=O)C(=O)NC(C)(C)C(=O)N[C@@H](CC(C)C)C(=O)N[C@@H](CC(C)C)C(=O)N[C@@H](CCCCN)C(=O)N[C@@H](CCC(N)=O)C(=O)N[C@@H](CCC(=O)O)C(=O)N[C@@H](CCCNC(=N)N)C(=O)N[C@@H](CCC(N)=O)C(=O)N[C@@H](CCCCN)C(=O)N[C@@H](CCCCN)C(=O)N[C@@H](CCC(N)=O)C(=O)N[C@@H](CCCNC(=N)N)C(=O)N[C@@H](CCC(=O)O)C(=O)N[C@@H](CCC(N)=O)C(=O)N[C@@H](C)C(=O)N[C@@H](CCC(=O)O)C(=O)N[C@@H](CCCCN)C(=O)N[C@@H](CC(N)=O)C(=O)NC(C)(C)C(=O)N[C@@H](CCC(N)=O)C(=O)N[C@H](C(=O)N[C@@H](CC(C)C)C(=O)N[C@@H](CCC(=O)O)C(=O)N[C@@H](CCC(N)=O)C(=O)N[C@H](C(N)=O)C(C)C)[C@@H](C)CC)[C@@H](C)CC)C(C)C)C(C)C [compound 20] (Ac-IVLSLDVPIK[αMeL]K([γGlu-C16 diacid])Q[Aib]LLKQERQKKQREQAEKN[Aib]QILEQV-NH2)
0.34 nM	5 % I	> 250 nM	CC[C@H](C)[C@H](NC(C)=O)C(=O)N[C@H](C(=O)N[C@@H](CC(C)C)C(=O)N[C@@H](CO)C(=O)N[C@@H](CC(C)C)C(=O)N[C@@H](CC(=O)O)C(=O)N[C@@H](C(=O)N1CCC[C@H]1C(=O)N[C@H](C(=O)N[C@@H](CCCCN)C(=O)N[C@@H](CC(C)C)C(=O)N[C@@H](CCCCNC(=O)CC[C@H](NC(=O)CCCCCCCCCCCCCCC(=O)O)C(=O)O)C(=O)N[C@@H](CCCCN)C(=O)N[C@H](C(=O)N[C@@H](CC(C)C)C(=O)N[C@@H](CC(C)C)C(=O)N[C@@H](CCCCN)C(=O)N[C@@H](CCC(N)=O)C(=O)N[C@@H](CCC(=O)O)C(=O)N[C@@H](CCCNC(=N)N)C(=O)N[C@@H](CCC(N)=O)C(=O)N[C@@H](CCCCN)C(=O)N[C@@H](CCCCN)C(=O)N[C@@H](CCC(N)=O)C(=O)N[C@@H](CCCNC(=N)N)C(=O)N[C@@H](CCC(=O)O)C(=O)N[C@@H](CCC(N)=O)C(=O)N[C@@H](C)C(=O)N[C@@H](CCC(=O)O)C(=O)N[C@@H](CCCCN)C(=O)N[C@@H](CC(N)=O)C(=O)NC(C)(C)C(=O)N[C@@H](CCC(N)=O)C(=O)N[C@H](C(=O)N[C@@H](CC(C)C)C(=O)N[C@@H](CCC(=O)O)C(=O)N[C@@H](CCC(N)=O)C(=O)N[C@H](C(N)=O)C(C)C)[C@@H](C)CC)[C@@H](C)CC)[C@@H](C)CC)C(C)C)C(C)C [compound 21] (Ac-IVLSLD[dV]PIKLK([γGlu-C16 diacid])KILLKQERQKKQREQAEKN[Aib]QILEQV-NH2)
4.44 nM	3 % I	> 250 nM	CCCCC(=O)N[C@H](C(=O)N[C@@H](CC(C)C)C(=O)N[C@@H](CO)C(=O)N[C@@H](CC(C)C)C(=O)N[C@@H](CC(=O)O)C(=O)N[C@@H](C(=O)N1CCC[C@H]1C(=O)N[C@H](C(=O)N[C@@H](CCCCN)C(=O)N[C@@H](CC(C)C)C(=O)N[C@@H](CCCCNC(=O)CC[C@H](NC(=O)CCCCCCCCCCCCCCC(=O)O)C(=O)O)C(=O)N[C@@H](CCC(N)=O)C(=O)NC(C)(C)C(=O)N[C@@H](CC(C)C)C(=O)N[C@@H](CC(C)C)C(=O)N[C@@H](CCCCN)C(=O)N[C@@H](CCC(N)=O)C(=O)N[C@@H](CCC(=O)O)C(=O)N[C@@H](CCCNC(=N)N)C(=O)N[C@@H](CCC(N)=O)C(=O)N[C@@H](CCCCN)C(=O)N[C@@H](CCCCN)C(=O)N[C@@H](CCC(N)=O)C(=O)N[C@@H](CCCNC(=N)N)C(=O)N[C@@H](CCC(=O)O)C(=O)N[C@@H](CCC(N)=O)C(=O)N[C@@H](C)C(=O)N[C@@H](CCC(=O)O)C(=O)N[C@@H](CCCCN)C(=O)N[C@@H](CC(N)=O)C(=O)N[C@H](C(=O)N[C@@H](CCC(N)=O)C(=O)N[C@H](C(=O)N[C@@H](CC(C)C)C(=O)N[C@@H](CCC(=O)O)C(=O)N[C@@H](CCC(N)=O)C(=O)N[C@H](C(N)=O)C(C)C)[C@@H](C)CC)C(C)C)[C@@H](C)CC)C(C)C)C(C)C [compound 22] (Pentanoyl-VLSLD[dV]PIKLK([γGlu-C16 diacid])Q[Aib]LLKQERQKKQREQAEKNVQILEQV-NH2)
0.33 nM	35 % I	> 250 nM	CC[C@H](C)[C@H](NC)C(=O)N[C@H](C(=O)N[C@@H](CC(C)C)C(=O)N[C@@H](CO)C(=O)N[C@@H](CC(C)C)C(=O)N[C@@H](CC(=O)O)C(=O)N[C@@H](C(=O)N1CCC[C@H]1C(=O)N[C@H](C(=O)N[C@@H](CCCCN)C(=O)N[C@@H](CC(C)C)C(=O)N[C@@H](CCCCNC(=O)CC[C@H](NC(=O)CCCCCCCCCCCCCCCCC(=O)O)C(=O)O)C(=O)N[C@@H](CCC(N)=O)C(=O)N[C@H](C(=O)N[C@@H](CC(C)C)C(=O)N[C@@H](CC(C)C)C(=O)N[C@@H](CCCCN)C(=O)N[C@@H](CCC(N)=O)C(=O)N[C@@H](CCC(=O)O)C(=O)N[C@@H](CCCNC(=N)N)C(=O)N[C@@H](CCC(N)=O)C(=O)N[C@@H](CCCCN)C(=O)N[C@@H](CCCCN)C(=O)N[C@@H](CCC(N)=O)C(=O)N[C@@H](CCCNC(=N)N)C(=O)N[C@@H](CCC(=O)O)C(=O)N[C@@H](CCC(N)=O)C(=O)N[C@@H](C)C(=O)N[C@@H](CCC(=O)O)C(=O)N[C@@H](CCCCN)C(=O)N[C@@H](CC(N)=O)C(=O)NC(C)(C)C(=O)N[C@@H](CCC(N)=O)C(=O)N[C@H](C(=O)N[C@@H](CC(C)C)C(=O)N[C@@H](CCC(=O)O)C(=O)N[C@@H](CCC(N)=O)C(=O)N[C@H](C(N)=O)C(C)C)[C@@H](C)CC)[C@@H](C)CC)[C@@H](C)CC)C(C)C)C(C)C [compound 23] (H-[NMeI]VLSLD[dV]PIKLK([γGlu-C18 diacid])QILLKQERQKKQREQAEKN[Aib]QILEQV-NH2)

Reference: patent US20260001928A1 (CORTERIA PHARMACEUTICALS, priority 2022, published 2026)
